Values quoted from earlier work as cited in patent US9163134B2, “Highly functional additive for polymerization and method for preparing vinyl chloride seeds using the same” (LG CHEM, LTD., priority 2011, dated 2015).
Converted amounts (≈) assume the structure as drawn.

| Compound | Solubility in water (mg/L) | Solubility in water [µg/mL] |
| --- | --- | --- |
| CCO [C2H5—OH] | ∞ |  |
| CCCCCCCCCCO [C10H21—OH] |  | 37 (≈ 0.234 mM) |
| CCCCCCO [C6H13—OH] |  | 6260 (≈ 61.3 mM) |
| CCCCCCCCO [C8H17—OH] |  | 540 (≈ 4.15 mM) |
